Measurements published in article PMC3522794 (Nature chemical biology, 2012).

Columns and labels:
HCK^Y527F = HCK^Y527F (Homo sapiens, UniProt P08631, Y522F); test: Pull-down assay to determine SH3 domain accessibility; type: binding; settings: inhibitor 5 µM (saturating), kinase 100 nM; mean ± SEM, n=3
[1] = target: SNAP-tag-polyproline (PP) peptide fusion (…); test: pull-down

Row | Compound | Percent kinase eluted (retained on PP ligand beads), HCK^Y527F (HCK^Y527F) | percent of loaded kinase retained on the beads [1]
1 | Cc1nc(Nc2ncc(C(=O)Nc3c(C)cccc3Cl)s2)cc(N2CCN(CCO)CC2)n1 [Dasatinib, dasatinib] | 27% | 
2 | HCK^Y527F (HCK residues 84–531, Y527F, SRC residue numbering) (enzyme) |  | 27%
